Laboratory results: ChEMBL document CHEMBL1201862, “PubChem BioAssay data set” (2004)
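Each compound was tested at five concentrations against cells in 96-well plates for 48 hours. GI50 = concentration required for 50% inhibition of growth.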 Activity calls are given as the source filed them. Rule as the data show it: active = GI50 up to about 1.1 µM and inactive = higher.

Key:
Assay in all cases: DTP human tumour cell line panel, 48 h
SF-295 = system: SF-295
RXF 393 = system: RXF 393
NCI-H522 = system: NCI-H522
KM12 = system: KM12
LOX IMVI = system: LOX IMVI
HL-60 = system: HL-60
SK-MEL-28 = system: SK-MEL-28
HOP-62 = system: HOP-62
A498 = system: A498
SR = system: SR
NCI-H226 = system: NCI-H226
Malme-3M = system: Malme-3M
SNB-19 = system: SNB-19
SF-268 = system: SF-268
KM-20L2 = system: KM-20L2
A549 = system: A549
MDA-MB-435 = system: MDA-MB-435
Hs-578T = system: Hs-578T
NCI/ADR-RES = system: NCI/ADR-RES
BT-549 = system: BT-549

Row | SMILES | GI50 (SF-295) | GI50 (RXF 393) | GI50 (NCI-H522) | GI50 (KM12) | GI50 (LOX IMVI) | GI50 (HL-60) | GI50 (SK-MEL-28) | GI50 (HOP-62) | GI50 (A498) | GI50 (SR) | GI50 (NCI-H226) | GI50 (Malme-3M) | GI50 (SNB-19) | GI50 (SF-268) | GI50 (KM-20L2) | GI50 (A549) | GI50 (MDA-MB-435) | GI50 (Hs-578T) | GI50 (NCI/ADR-RES) | GI50 (BT-549)
1 | C=C1CC2C(=O)N(c3ccccc3)C(=O)C2CC1n1[nH]c(=O)n(Cc2ccccc2)c1=O (centres undefined) | > 100 µM (inactive) | > 100 µM (inactive) | > 100 µM (inactive) | > 100 µM (inactive) | > 100 µM (inactive) | > 100 µM (inactive) | > 100 µM (inactive) | > 100 µM (inactive) | > 100 µM (inactive) | > 100 µM (inactive) | > 100 µM (inactive) | > 100 µM (inactive) | > 100 µM (inactive) | > 100 µM (inactive) | > 100 µM (inactive) | > 100 µM (inactive) | – | – | – | –
2 | O=c1[nH]c2ccccc2nc1CBr | 12.6 µM (inactive) | 1.82 µM (inactive) | 0.638 µM (active) | 2.56 µM (inactive) | 0.912 µM (active) | 0.213 µM (active) | 12.1 µM (inactive) | 21.3 µM (inactive) | 21.8 µM (inactive) | 0.415 µM (active) | 15.8 µM (inactive) | 2.74 µM (inactive) | 23.5 µM (inactive) | 11.1 µM (inactive) | 14.1 µM (inactive) | 14.4 µM (inactive) | 12.3 µM (inactive) | 12.1 µM (inactive) | 19.7 µM (inactive) | 9.27 µM (inactive)
3 | O=C(NC(=O)c1ccccc1[N+](=O)[O-])Nc1ccc(Oc2ncc(Cl)cn2)c([N+](=O)[O-])c1 | 0.157 µM (active) | 0.373 µM (active) | 0.115 µM (active) | 0.0975 µM (active) | 0.895 µM (active) | 0.0299 µM (active) | – | 0.303 µM (active) | 0.301 µM (active) | 0.0638 µM (active) | 0.263 µM (active) | 0.061 µM (active) | 2.02 µM (inactive) | 0.327 µM (active) | 0.121 µM (active) | 0.385 µM (active) | 0.0214 µM (active) | 0.202 µM (active) | 0.305 µM (active) | 31.5 µM (inactive)
4 | COc1ccccc1NC(=O)C(=O)C1C(=O)Nc2ccccc2[S+]1[O-] (centres undefined) | > 100 µM (inactive) | > 100 µM (inactive) | > 100 µM (inactive) | > 100 µM (inactive) | > 100 µM (inactive) | > 100 µM (inactive) | > 100 µM (inactive) | > 100 µM (inactive) | > 100 µM (inactive) | > 100 µM (inactive) | > 100 µM (inactive) | > 100 µM (inactive) | > 100 µM (inactive) | > 100 µM (inactive) | > 100 µM (inactive) | > 100 µM (inactive) | – | – | – | –
5 | COC(=O)C(C(=O)C(=O)Nc1ccccc1C)c1nc2ccc([N+](=O)[O-])cc2nc1O (centres undefined) | > 100 µM (inactive) | > 100 µM (inactive) | 47.3 µM (inactive) | > 100 µM (inactive) | > 100 µM (inactive) | > 100 µM (inactive) | > 100 µM (inactive) | > 100 µM (inactive) | > 100 µM (inactive) | > 100 µM (inactive) | > 100 µM (inactive) | > 100 µM (inactive) | > 100 µM (inactive) | > 100 µM (inactive) | > 100 µM (inactive) | > 100 µM (inactive) | – | – | – | –
6 | O=c1/c(=C/c2ccco2)sc2nc3ccccc3n12 | > 10 µM (inactive) | 63.5 µM (inactive) | > 10 µM (inactive) | > 100 µM (inactive) | > 10 µM (inactive) | > 10 µM (inactive) | > 10 µM (inactive) | > 100 µM (inactive) | > 10 µM (inactive) | > 10 µM (inactive) | > 10 µM (inactive) | > 10 µM (inactive) | > 10 µM (inactive) | > 10 µM (inactive) | > 10 µM (inactive) | > 10 µM (inactive) | – | – | – | –
7 | CC(=O)OC[C@@H](COC(=O)/C=C/c1ccc(O)cc1)OC1OC(CO)C(O)C(O)C1O (some centres undefined) | > 100 µM (inactive) | > 100 µM (inactive) | > 100 µM (inactive) | > 100 µM (inactive) | > 100 µM (inactive) | > 100 µM (inactive) | > 100 µM (inactive) | > 100 µM (inactive) | > 100 µM (inactive) | > 100 µM (inactive) | > 100 µM (inactive) | > 100 µM (inactive) | > 100 µM (inactive) | > 75.5 µM (inactive) | > 100 µM (inactive) | > 100 µM (inactive) | – | – | – | –
8 | c1ccc([S+](c2ccccc2)c2ccc(Sc3ccc([S+](c4ccccc4)c4ccccc4)cc3)cc2)cc1 | 25.8 µM (inactive) | 19.7 µM (inactive) | 12 µM (inactive) | 21.3 µM (inactive) | 18.6 µM (inactive) | 2.58 µM (inactive) | 34.7 µM (inactive) | 39.7 µM (inactive) | 44.4 µM (inactive) | 6.44 µM (inactive) | 25.5 µM (inactive) | 32.6 µM (inactive) | 7.64 µM (inactive) | 22.3 µM (inactive) | 16.8 µM (inactive) | 9.79 µM (inactive) | – | – | – | –
9 | Cc1[nH]c(=O)[nH]c(=O)c1N(CCF)CCCl [FLUORODOPAN] | 284 µM (inactive) | 219 µM (inactive) | 143 µM (inactive) | 429 µM (inactive) | – | 70.8 µM (inactive) | 420 µM (inactive) | 318 µM (inactive) | 418 µM (inactive) | 79.6 µM (inactive) | 560 µM (inactive) | 349 µM (inactive) | 316 µM (inactive) | 290 µM (inactive) | 359 µM (inactive) | 265 µM (inactive) | 419 µM (inactive) | 635 µM (inactive) | 240 µM (inactive) | 344 µM (inactive)
